Series [1] in a line: Surrogate Activity-Based Plasma Stability Assay. Type of series: in vitro ADME. To be noted: rat, Surrogate activity-based Plasma stability t½. As to the method: Stability half-life was then calculated by the formula, t½=0.693÷k Surrogate Activity-Based Plasma Stability Assay: […]
2) Calculate slope of value above and […]

The next series concerns the target T1, hAPJ (Homo sapiens, UniProt P35414).
T1 sequence (P35414 1-380): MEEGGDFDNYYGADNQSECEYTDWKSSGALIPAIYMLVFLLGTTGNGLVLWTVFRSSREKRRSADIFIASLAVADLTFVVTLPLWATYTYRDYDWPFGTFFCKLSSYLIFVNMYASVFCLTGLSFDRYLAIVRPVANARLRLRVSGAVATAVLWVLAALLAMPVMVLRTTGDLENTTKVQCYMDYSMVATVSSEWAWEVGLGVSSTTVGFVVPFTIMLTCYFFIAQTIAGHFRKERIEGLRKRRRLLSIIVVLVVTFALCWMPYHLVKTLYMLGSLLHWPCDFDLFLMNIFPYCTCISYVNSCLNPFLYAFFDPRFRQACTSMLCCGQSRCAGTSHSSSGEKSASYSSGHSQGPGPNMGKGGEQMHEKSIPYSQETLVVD
Description: hAPJ Calcium Flux Assay. Type of series: cell-based. To be noted: Chem-5 APJ stable cells, FLIPR calcium flux stimulation; read-out: hAPJ Ca^2+ Flux EC50. As to the method:
Chem-5 APJ stable cells (Millipore # HTS068C) were plated in 384-well format with 10,000 cells/well in 25 ul growth media, then grown 24 hours in a 37° C. tissue culture incubator. One hour before the assay, 25 ul/well FLIPR Calcium 4 dye (Molecular Devices R8142) with 2.5 mM probenecid was added, and cells were incubated one hour in a 37° C. tissue culture incubator. Peptides were solubilized in HBSS, HEPES & 0.1% BSA buffer, and serially-diluted 10-fold, from 50 uM to […], in triplicate. FLIPR Tetra was used to add peptide to the cells with dye (1:5, for final peptide concentrations ranging from 10 uM to […]). FLIPR dye inside the cells emitted fluorescence after binding to calcium, while fluorescence from outside the cells was masked. Fluorescence was measured using 470-495 excitation and 515-575 emission wavelengths on the FLIPR Tetra. Readings were done for 3 minutes total, beginning 10 seconds before the peptide addition. Maximum-minimum values were calculated and plotted for each peptide concentration, and GraphPad prism software was used to calculate EC50 values at the curve inflection points, for calcium flux stimulation by peptides.
On the technique in general: Calcium flux is commonly read through the fluorescence of an indicator in the cells.

The structures appear in SMILES notation. Where a SMILES comes first, the peptide text is derived from it. [ ]: non-standard residue; d: D form. Cha = N[C@@H](CC1CCCCC1)C(=O)O; pGlu = O=C1CC[C@@H](C(=O)O)N1; dNle = CCCC[C@@H](N)C(=O)O; dNva = CCC[C@@H](N)C(=O)O; Aib = CC(C)(N)C(=O)O

What is called half-life is how long it takes for the measured level to halve. The term EC50 denotes the concentration needed to bring the measured effect to its halfway point.

As to `CCCC[C@@H](NC(=O)[C@@H]1CCCN1C(=O)CNC(=O)[C@H](CCCCN)NC(=O)[C@H](Cc1c[nH]cn1)NC(=O)[C@@H](CCCCN)NC(=O)[C@H](CC(C)C)NC(=O)[C@H](CCCNC(=N)N)NC(=O)[C@@H]1CCCN1C(=O)[C@H](CCCNC(=N)N)NC(=O)[C@@H]1CCC(=O)N1)C(=O)N[C@H](C)C(=O)N[C@H](Cc1ccccc1)C(=O)O` [Example 11, pE-R-P-R-L-k-H-K-G-P-nle-a-f-OH] ([pGlu]RPRL[dK]HKGP[dNle][dA][dF]-OH), in series [1], the half-life is over 16.7 h. In addition, on hAPJ, the EC50 worked out at 1060 nM.

In series [1], `CCCC[C@H](NC(=O)[C@@H]1CCCN1C(=O)CNC(=O)[C@H](CCCCN)NC(=O)[C@H](Cc1c[nH]cn1)NC(=O)[C@@H](C)NC(=O)[C@H](CC(C)C)NC(=O)[C@H](CCCNC(=N)N)NC(=O)[C@@H]1CCCN1C(=O)[C@H](CCCNC(=N)N)NC(=O)[C@@H]1CCC(=O)N1)C(=O)N[C@H](Cc1ccccc1)C(=O)O` [Example 35, pE-R-P-R-L-a-H-K-G-P-Nle-f-OH] gave a half-life of over 16.7 h. Besides, the EC50 at hAPJ was found to be 10.7 nM.

`CCCC[C@@H](NC(=O)[C@@H]1CCCN1C(=O)CNC(=O)[C@H](CCCCN)NC(=O)C(C)(C)NC(=O)[C@@H](C)NC(=O)[C@H](CC(C)C)NC(=O)[C@H](CCCNC(=N)N)NC(=O)[C@@H]1CCCN1C(=O)[C@H](CCCNC(=N)N)NC(=O)[C@@H]1CCC(=O)N1)C(=O)N[C@H](C)C(=O)N[C@H](Cc1ccccc1)C(=O)O` [Example 15, pE-R-P-R-L-a-Aib-K-G-P-nle-a-f-OH] ([pGlu]RPRL[dA][Aib]KGP[dNle][dA][dF]-OH) gave a half-life in series [1] of over 16.7 h. On hAPJ, the EC50 was 2.1 nM.

`CCCC[C@@H](NC(=O)[C@@H]1CCCN1C(=O)CNC(=O)[C@H](CCCCN)NC(=O)[C@H](Cc1c[nH]cn1)NC(=O)[C@@H](C)NC(=O)[C@H](CC(C)C)NC(=O)[C@H](CCCNC(=N)N)NC(=O)[C@@H]1C[C@@H](c2ccccc2)CN1C(=O)[C@H](CCCNC(=N)N)NC(=O)[C@@H]1CCC(=O)N1)C(=O)N[C@H](C)C(=O)N[C@H](Cc1ccccc1)C(=O)O` [Example 9, pE-R-(trans-4-PhP)-R-L-a-H-K-G-P-nle-a-f-OH] gave a half-life in series [1] of over 16.7 h. The 50% effective concentration (EC50) on hAPJ amounted to 9.9 nM.

In series [1], `CC(C)C[C@H](NC(=O)[C@H](CCCNC(=N)N)NC(=O)[C@@H]1CCCN1C(=O)[C@H](CCCNC(=N)N)NC(=O)[C@@H]1CCC(=O)N1)C(=O)N[C@H](C)C(=O)N[C@@H](Cc1c[nH]cn1)C(=O)N[C@@H](CCCCN)C(=O)NCC(=O)N1CCC[C@H]1C(=O)N[C@H](Cc1ccccc1)C(=O)N[C@H](C)C(=O)N[C@H](Cc1ccccc1)C(=O)O` [Example 57, pE-R-P-R-L-a-H-K-G-P-f-a-f-OH] ([pGlu]RPRL[dA]HKGP[dF][dA][dF]-OH) returned a half-life of over 16.7 h. In addition, at hAPJ, the half-maximal effective concentration (EC50) amounted to 1.5 nM.

For `CCCC[C@@H](NC(=O)[C@@H]1CCCN1C(=O)CNC(=O)[C@H](CCCCN)NC(=O)[C@@H](C)NC(=O)[C@H](CO)NC(=O)[C@@H](CC(C)C)NC(=O)[C@H](CCCNC(=N)N)NC(=O)[C@@H]1CCCN1C(=O)[C@H](CCCNC(=N)N)NC(=O)[C@@H]1CCC(=O)N1)C(=O)N[C@H](C)C(=O)N[C@H](Cc1ccccc1)C(=O)O` [Example 2, pE-R-P-R-(D-Leu)-S-a-K-G-P-nle-a-f-OH] ([pGlu]RPR[dL]S[dA]KGP[dNle][dA][dF]-OH), the half-life in series [1] was over 16.7 h. Moreover, the EC50 at hAPJ came to 386 nM.

In turn, `CCCC[C@@H](NC(=O)[C@@H]1CCCN1C(=O)CNC(=O)[C@H](CCCCN)NC(=O)[C@H](Cc1c[nH]cn1)NC(=O)[C@@H](C)NC(=O)[C@H](CC(C)C)NC(=O)[C@H](CCCNC(=N)N)NC(=O)[C@@H]1CCCN1C(=O)[C@H](CCCNC(=N)N)NC(=O)[C@@H]1CCC(=O)N1)C(=O)N[C@H](CCC)C(=O)N[C@H](Cc1ccccc1)C(=O)O` [Example 54, pE-R-P-R-L-a-H-K-G-P-nle-nva-f-OH] ([pGlu]RPRL[dA]HKGP[dNle][dNva][dF]-OH) came in with a half-life in series [1] of 15 h. In addition, the EC50 at hAPJ came to 0.9 nM.

With `CCCC[C@@H](NC(=O)[C@@H]1CCCN1C(=O)CNC(=O)[C@H](CCCCN)NC(=O)[C@H](Cc1c[nH]cn1)NC(=O)[C@@H](C)NC(=O)[C@H](CC(C)C)NC(=O)[C@H](CCCNC(=N)N)NC(=O)[C@@H]1CCCN1C(=O)[C@H](CCCNC(=N)N)NC(=O)[C@@H]1CCC(=O)N1)C(=O)N[C@H](CC)C(=O)N[C@H](Cc1ccccc1)C(=O)O` [Example 45, pE-R-P-R-L-a-H-K-G-P-nle-abu-f-OH], the half-life in series [1] is over 16.7 h. Besides, the EC50 on hAPJ came to 2.4 nM.

In series [1], `CCCC[C@@H](NC(=O)[C@@H]1CCCN1C(=O)CNC(=O)[C@H](CCCCN)NC(=O)[C@H](CC(C)C)NC(=O)[C@@H](C)NC(=O)[C@H](CC(C)C)NC(=O)[C@H](CCCNC(=N)N)NC(=O)[C@@H]1CCCN1C(=O)[C@H](CCCNC(=N)N)NC(=O)[C@@H]1CCC(=O)N1)C(=O)N[C@H](C)C(=O)N[C@H](Cc1ccccc1)C(=O)O` [Example 47, pE-R-P-R-L-a-L-K-G-P-nle-a-f-OH] ([pGlu]RPRL[dA]LKGP[dNle][dA][dF]-OH) yielded a half-life of over 16.7 h. Besides, the half-maximal effective concentration (EC50) on hAPJ came to 4.4 nM.

As to `CCCC[C@@H](NC(=O)[C@@H]1CCCN1C(=O)CNC(=O)[C@H](CCCCN)NC(=O)[C@H](Cc1c[nH]cn1)NC(=O)[C@@H](C)NC(=O)[C@H](CC(C)C)NC(=O)[C@H](CCCNC(=N)N)NC(=O)[C@@H]1CCCN1C(=O)[C@@H](CCCNC(=N)N)NC(=O)[C@@H]1CCC(=O)N1)C(=O)N[C@H](C)C(=O)N[C@H](Cc1ccccc1)C(=O)O` [Example 3, pE-r-P-R-L-a-H-K-G-P-nle-a-f-OH], the half-life in series [1] was over 16.7 h. Also, the EC50 on hAPJ was found to be 797 nM.

`CCCC[C@@H](NC(=O)[C@@H]1CCCN1C(=O)CNC(=O)[C@H](CCCCN)NC(=O)[C@@H](C)NC(=O)[C@@H](C)NC(=O)[C@H](CC(C)C)NC(=O)[C@H](CCCNC(=N)N)NC(=O)[C@@H]1CCCN1C(=O)[C@H](CCCNC(=N)N)NC(=O)[C@@H]1CCC(=O)N1)C(=O)N[C@H](C)C(=O)N[C@H](Cc1ccccc1)C(=O)O` [Example 48, pE-R-P-R-L-a-a-K-G-P-nle-a-f-OH] ([pGlu]RPRL[dA][dA]KGP[dNle][dA][dF]-OH): the half-life in series [1] amounted to 4.13 h. Further, the half-maximal effective concentration (EC50) on hAPJ came to 16.1 nM.

Regarding `CCCC[C@@H](NC(=O)[C@@H]1CCCN1C(=O)CNC(=O)[C@H](CCCCN)NC(=O)[C@H](Cc1c[nH]cn1)NC(=O)[C@@H](C)NC(=O)[C@H](CC(C)C)NC(=O)[C@H](CCCNC(=N)N)NC(=O)[C@@H]1CCCN1C(=O)[C@H](CCCNC(=N)N)NC(=O)[C@@H]1CCC(=O)N1)C(=O)N1CCC(Oc2ccccc2)CC1` [Example 43, pE-R-P-R-L-a-H-K-G-P-nle-(4-Phenoxypiperidin-1-yl)], in series [1], the half-life stood at 2.97 h. On hAPJ, the EC50 worked out at 2 nM.

In series [1], `CCCC[C@@H](NC(=O)[C@@H]1CCCN1C(=O)CNC(=O)[C@H](CCCCN)NC(=O)[C@H](Cc1c[nH]cn1)NC(=O)[C@@H](C)NC(=O)[C@H](CC1CCCCC1)NC(=O)[C@H](CCCNC(=N)N)NC(=O)[C@@H]1CCCN1C(=O)[C@H](CCCNC(=N)N)NC(=O)[C@@H]1CCC(=O)N1)C(=O)N[C@H](C)C(=O)N[C@H](Cc1ccccc1)C(=O)O` [Example 23, pE-R-P-R-Cha-a-H-K-G-P-nle-a-f-OH] ([pGlu]RPR[Cha][dA]HKGP[dNle][dA][dF]-OH) returned a half-life of 2.08 h. For the same molecule, the EC50 on hAPJ was 2.8 nM.

Molecule `CCCC[C@H](NC(=O)[C@@H]1CCCN1C(=O)CNC(=O)[C@H](CCCCN)NC(=O)C(C)(C)NC(=O)[C@H](CO)NC(=O)[C@H](CC(C)C)NC(=O)[C@H](CCCNC(=N)N)NC(=O)[C@@H]1CCCN1C(=O)[C@H](CCCNC(=N)N)NC(=O)[C@@H]1CCC(=O)N1)C(=O)N1CCC[C@H]1C(=O)N[C@H](Cc1ccccc1)C(=O)O` [Example 41, pE-R-P-R-L-S-Aib-K-G-P-Nle-P-f-OH] showed a half-life in series [1] of 0.703 h. In addition, the EC50 on hAPJ was determined as 4.5 nM.

Molecule `CCCC[C@@H](NC(=O)[C@@H]1CCCN1C(=O)CNC(=O)[C@H](CCCCN)NC(=O)[C@H](Cc1c[nH]cn1)NC(=O)[C@@H](CO)NC(=O)[C@H](CC(C)C)NC(=O)[C@H](CCCNC(=N)N)NC(=O)[C@@H]1CCCN1C(=O)[C@H](CCCNC(=N)N)NC(=O)[C@@H]1CCC(=O)N1)C(=O)N[C@H](C)C(=O)N[C@H](Cc1ccccc1)C(=O)O` [Example 12, pE-R-P-R-L-s-H-K-G-P-nle-a-f-OH] ([pGlu]RPRL[dS]HKGP[dNle][dA][dF]-OH) gave a half-life in series [1] of over 16.7 h. The half-maximal effective concentration (EC50) on hAPJ is 0.9 nM.

In series [1], `CCCC[C@@H](NC(=O)[C@@H]1CCCN1C(=O)CNC(=O)[C@H](CCCCN)NC(=O)[C@H](Cc1c[nH]cn1)NC(=O)[C@@H](C)NC(=O)[C@H](CC(C)C)NC(=O)[C@H](CCCNC(=N)N)NC(=O)[C@@H]1CCCN1C(=O)[C@H](CCCNC(=N)N)NC(=O)[C@@H]1CCC(=O)N1)C(=O)NCCc1ccccc1` [Example 32, pE-R-P-R-L-a-H-K-G-P-nle-NH(Phenethyl)] showed a half-life of 0.795 h.

(Values after US8921307B2, “Synthetic linear apelin mimetics for the treatment of heart failure” (priority 2012, dated 2014).)
